Target: 18-kDa Translocator Protein (TSPO) (Homo sapiens, UniProt P30536, T147A)
Assay: radioligand competition against [3H]PK11195 in human platelet membranes
Assay type: binding

Chain of 18-kDa Translocator Protein (TSPO) (P30536 2-169 T147A): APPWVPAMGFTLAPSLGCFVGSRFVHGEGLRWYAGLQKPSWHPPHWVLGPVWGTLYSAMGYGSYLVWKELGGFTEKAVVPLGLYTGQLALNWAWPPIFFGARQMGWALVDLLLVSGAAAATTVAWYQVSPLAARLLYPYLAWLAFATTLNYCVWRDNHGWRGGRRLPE

Ki: 2.17 ± 0.17 nM
SMILES: COc1ccccc1CN(C(C)=O)c1cnccc1Oc1ccccc1 [PBR28]
